According to PubChem BioAssay (NCI):
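96-well plates; 48 h exposure; 5 concentrations. Endpoints by linear interpolation between flanking doses. Not reached: highest tested concentration assigned. At the GI50, growth is halved. At the TGI there is no net growth.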

Key:
Test in all cases: NCI anticancer screen, dose series, 48 h
[1] = system: DU-145 prostate
[2] = system: SK-MEL-2 melanoma
[3] = system: NCI-H460 lung
[4] = system: BT-549 breast
[5] = system: PC-3 prostate
[6] = system: HOP-62 NSCLC
[7] = system: NCI-H522 lung
[8] = system: NCI-H23 lung
[9] = system: UACC-257 melanoma
[10] = system: CCRF-CEM leukemia
[11] = system: NCI/ADR-RES ovarian
[12] = system: A498 renal
[13] = system: TK-10 renal
[14] = system: ACHN renal
[15] = system: RXF 393 renal
[16] = system: SR leukemia
[17] = system: CAKI-1 renal
[18] = system: OVCAR-8 ovarian
[19] = system: SK-MEL-5 melanoma
[20] = system: SF-295 CNS
[21] = system: HCT-15 colon
[22] = system: OVCAR-5 ovarian
[23] = system: SK-MEL-28 melanoma
[24] = system: SNB-19 CNS
[25] = system: COLO 205 colon
[26] = system: MCF7 breast
[27] = system: MALME-3M melanoma
[28] = system: A549 NSCLC
[29] = system: OVCAR-3 ovarian
[30] = system: M14 melanoma
[31] = system: SF-539 CNS
[32] = system: U251 CNS
[33] = system: SW-620 colon
[34] = system: HL-60(TB) leukemia
[35] = system: SK-OV-3 ovarian
[36] = system: UACC-62 melanoma
[37] = system: SN12C renal
[38] = system: HOP-92 NSCLC
[39] = system: NCI-H226 lung
[40] = system: IGROV1 ovarian
[41] = system: UO-31 renal
[42] = system: HS 578T breast
[43] = system: MDA-MB-231 breast
[44] = system: 786-0 renal
[45] = system: LOX IMVI melanoma
[46] = system: SNB-75 CNS
[47] = system: EKVX NSCLC
[48] = system: SF-268 CNS
[49] = system: KM12 colon
[50] = system: OVCAR-4 ovarian
[51] = system: RPMI-8226 leukemia
[52] = system: HT29 colon
[53] = system: HCT-116 colon
[54] = system: HCC-2998 colon
[55] = system: K-562 leukemia
[56] = system: MOLT-4 leukemia
[57] = system: T-47D breast

Cc1cnc2[nH]c(-c3cccc(Cl)c3)cc(=O)c2c1
TGI [1]: > 57.8 µM
TGI [2]: 97.4 µM
TGI [3]: > 58.2 µM
TGI [4]: > 100 µM
TGI [5]: > 100 µM
TGI [6]: 3.45 µM
TGI [7]: 15 µM
TGI [8]: > 100 µM
TGI [9]: > 100 µM
TGI [10]: > 100 µM
TGI [11]: > 100 µM
TGI [12]: > 100 µM
TGI [13]: > 100 µM
TGI [14]: > 100 µM
TGI [15]: 85.5 µM
TGI [16]: > 100 µM
TGI [17]: 59.7 µM
TGI [18]: > 100 µM
TGI [19]: 16 µM
TGI [20]: 1.64 µM
TGI [21]: > 100 µM
TGI [22]: > 100 µM
TGI [23]: > 100 µM
TGI [24]: 41.3 µM
TGI [25]: > 37.1 µM
TGI [26]: > 100 µM
TGI [27]: > 100 µM
TGI [28]: > 100 µM
TGI [29]: 0.0755 µM
TGI [30]: > 100 µM
TGI [31]: 0.0658 µM
TGI [32]: 92.2 µM
TGI [33]: > 100 µM
TGI [34]: 0.609 µM
TGI [35]: > 100 µM
TGI [36]: 63.5 µM
TGI [37]: > 100 µM
TGI [38]: > 100 µM
TGI [39]: 87.3 µM
TGI [40]: > 100 µM
TGI [41]: > 100 µM
TGI [42]: 20.5 µM
TGI [43]: 1.46 µM
TGI [44]: > 100 µM
TGI [45]: 11.6 µM
TGI [46]: 36.2 µM
TGI [47]: > 100 µM
TGI [48]: 34.5 µM
TGI [49]: > 100 µM
TGI [50]: > 100 µM

COc1ccc(-c2c(C#N)c(N)nc3c2CCCc2ccc(F)cc2-3)cc1OC
GI50 [1]: 0.0164 µM
TGI [1]: 15.7 µM
GI50 [2]: < 0.01 µM
TGI [2]: > 100 µM
GI50 [3]: 0.0163 µM
TGI [3]: > 52.6 µM
GI50 [4]: 0.556 µM
TGI [4]: 26.2 µM
GI50 [5]: < 0.0185 µM
GI50 [6]: 0.131 µM
TGI [6]: 29.7 µM
GI50 [7]: < 0.01 µM
TGI [7]: 33.5 µM
GI50 [8]: 0.487 µM
TGI [8]: > 100 µM
TGI [9]: > 78.5 µM
GI50 [10]: < 0.0105 µM
TGI [10]: > 92.8 µM
GI50 [11]: 0.48 µM
TGI [11]: > 100 µM
GI50 [13]: < 0.0163 µM
TGI [13]: 1.7 µM
TGI [14]: 19.4 µM
GI50 [15]: 0.0586 µM
TGI [15]: > 82.9 µM
GI50 [17]: 0.0241 µM
TGI [17]: 35.1 µM
GI50 [51]: < 0.01 µM
TGI [51]: 1.61 µM
GI50 [18]: 0.419 µM
TGI [18]: > 100 µM
TGI [19]: 0.483 µM
GI50 [20]: < 0.01 µM
GI50 [21]: < 0.0497 µM
TGI [21]: 0.504 µM
GI50 [22]: 8.97 µM
TGI [22]: > 100 µM
GI50 [52]: 1.07 µM
TGI [52]: > 41.3 µM
GI50 [23]: 1.03 µM
TGI [23]: > 38 µM
GI50 [24]: 20.7 µM
TGI [24]: > 92.1 µM
GI50 [25]: 4.89 µM
TGI [25]: > 38.1 µM
GI50 [53]: 0.187 µM
TGI [53]: 11 µM
GI50 [26]: < 0.01 µM
TGI [26]: > 100 µM
GI50 [27]: < 0.01 µM
GI50 [28]: 0.174 µM
TGI [28]: > 54 µM
GI50 [54]: 0.354 µM
TGI [54]: 14.4 µM
GI50 [29]: < 0.01 µM
GI50 [30]: 0.0758 µM
TGI [30]: 0.402 µM
GI50 [55]: < 0.01 µM
TGI [55]: > 100 µM
GI50 [31]: < 0.01 µM
TGI [31]: 0.0213 µM
GI50 [32]: < 0.0501 µM
TGI [33]: > 38.8 µM
GI50 [34]: < 0.01 µM
TGI [34]: > 100 µM
GI50 [35]: 4.27 µM
TGI [35]: > 92.3 µM
GI50 [36]: < 0.0169 µM
GI50 [37]: < 0.0499 µM
TGI [37]: 4.75 µM
GI50 [38]: 4.73 µM
TGI [38]: > 100 µM
GI50 [39]: < 0.01 µM
TGI [39]: > 100 µM
GI50 [40]: 0.131 µM
TGI [40]: > 100 µM
GI50 [41]: 0.148 µM
TGI [41]: > 100 µM
GI50 [43]: < 0.0399 µM
TGI [43]: 0.758 µM
GI50 [56]: < 0.01 µM
TGI [56]: > 100 µM
GI50 [44]: 0.0964 µM
TGI [44]: 30.3 µM
GI50 [45]: < 0.0422 µM
TGI [45]: 19.6 µM
GI50 [46]: 1.36 µM
TGI [46]: > 100 µM
GI50 [47]: 0.0861 µM
GI50 [48]: 0.0335 µM
TGI [48]: > 100 µM
GI50 [49]: < 0.01 µM
TGI [49]: 2.58 µM
GI50 [57]: 22.3 µM
TGI [57]: > 100 µM
GI50 [50]: 1.28 µM
TGI [50]: > 29.9 µM
